Results from patent US7833331B2, “Non-toxic corrosion-protection pigments based on cobalt” (University of Dayton, priority 2007, dated 2010).
Several values for one entry are separate records, joined by “and”; a condition that tells them apart may be missing. Equal entries are not always repeated.

Tests used:
[1] = ASTM B-117 static salt fog test of PVB wash primer with pigment, rated by ASTM D-1654; details: ASTM D-1654 rating; for 2024-T3 B-117 Proc. A / 7075-T6 B-117 Proc. A: failure at scribe; for 2024-T3 B-117 Proc. B / 7075-T6 B-117 Proc. B: failure in unscribed areas
Method: (§1) The corrosion inhibiting performance of CoIII pigments was evaluated by incorporating them into primer paint formulations. The acid wash primer paint formulations called out in DoD-P-15328 [Primer (Wash), Pretreatment (Formulation No. 117 for Metals)] were used to test the various pigments. The wash primer is composed of a resin, an acid, a corrosion inhibiting pigment, powdered talc, and carbon lampblack. The acid content of this wash primer provides a rigorous initial test of the stability and performance of the pigments. Other, more benign, polymer-based binder and resin systems might not separate the compounds based on their performance as effectively or as rapidly. The base solution for the wash primer in this specification was prepared by mixing 88.3 grams of isopropanol, 31.3 grams of n-butanol, and 3.8 grams of deionized water with 14 grams of poly(vinyl butyral) resin (PVB) (Monsanto Butvar B-90TM). PVB was used exclusively throughout testing to avoid preparation and compositional complications during analysis of pigment performance. However, the invention is not limited to the use of PVB. Acid diluent was prepared by mixing 70 grams of 85% phosphoric acid, 63 grams of deionized water, and 247 grams of isopropanol. Finely-ground pigment powder was measured out and added to 13.74 grams of the base solution for each paint to be tested. A small amount (0.2 g) of powdered talc (magnesium silicate) “filler” was added. Lampblack was not added to these samples. These components were mixed thoroughly by hand and 3.8 g of phosphoric acid diluent added with further mixing. This rough processing allowed direct comparisons of pigment performance to be made without complications due to powder treatments, modifications, and additives. […] This is not the conventional paint application procedure for aluminum alloys. Under normal service conditions, aluminum alloys are first subjected to a hexavalent chromium-containing conversion coating prior to primer application. However, the conversion coating was omitted so that the performance of the pigment alone could be evaluated and not the synergistic effects of hexavalent chromium (in the conversion coating) or even of barrier films (in the phosphate or anodized coatings). Multiple samples of specific pigment compositions were prepared and tested. […] The chromate pigments were prepared identically to those used to test CoIII composition variations. PVB wash primers containing various pigment formulations were evaluated by exposing them to static salt fog (ASTM B-117) and cyclic Prohesiomm (ASTM G-85.5) accelerated corrosion tests. ASTM B-117 is a traditional corrosion “proof” test that has little relation to a real working environment. This accelerated corrosion test exposes samples to a constant salt-water fog and is a de facto test of solubility for corrosion inhibitors. […] This is particularly true of inhibitors and compounds that have not been fully optimized with respect to solubility. ASTM G-85.5 (ProhesionTM) is a cyclic corrosion test that more closely resembles real working environments. This accelerated corrosion test exposes samples to a cycle of fog of dilute salt and ammonium sulfate at room temperature followed by forced-air drying at an elevated temperature. This is a more realistic test of the ability of a compound to inhibit corrosion. Results of these tests can be combined to gain insight into how a particular coating or compound will perform relative to a standard as well as helping identify strengths and weaknesses in the performance of the material. ASTM D-1654 evaluation standard for painted or coated specimens subjected to corrosive environments was used to evaluate the performance of the coatings. After the paint dried for 24 hours, each plate was scribed with an X and the plate edges were sealed with PVC tape to eliminate corrosion edge effects. Two visual observations are associated with this rating test. […]

[2] = ASTM G-85.5 cyclic Prohesion test of PVB wash primer with pigment, rated by ASTM D-1654; details: ASTM D-1654 rating; for 2024-T3 G-85 Proc. A / 7075-T6 G-85 Proc. A: failure at scribe; for 2024-T3 G-85 Proc. B / 7075-T6 G-85 Proc. B: failure in unscribed areas
Method: as §1

[3] = Accelerated corrosion testing (both ASTM B-117 and G-85.5) of PVB wash primers, overall observation
Method: The corrosion inhibiting performance of CoIII pigments was evaluated by incorporating them into primer paint formulations. […] The wash primer is composed of a resin, an acid, a corrosion inhibiting pigment, powdered talc, and carbon lampblack. The acid content of this wash primer provides a rigorous initial test of the stability and performance of the pigments. Other, more benign, polymer-based binder and resin systems might not separate the compounds based on their performance as effectively or as rapidly.
PVB was used exclusively throughout testing to avoid preparation and compositional complications during analysis of pigment performance. However, the invention is not limited to the use of PVB.
A small amount (0.2 g) of powdered talc (magnesium silicate) “filler” was added. Lampblack was not added to these samples. These components were mixed thoroughly by hand and 3.8 g of phosphoric acid diluent added with further mixing. This rough processing allowed direct comparisons of pigment performance to be made without complications due to powder treatments, modifications, and additives.
This is not the conventional paint application procedure for aluminum alloys. Under normal service conditions, aluminum alloys are first subjected to a hexavalent chromium-containing conversion coating prior to primer application. However, the conversion coating was omitted so that the performance of the pigment alone could be evaluated and not the synergistic effects of hexavalent chromium (in the conversion coating) or even of barrier films (in the phosphate or anodized coatings).
This accelerated corrosion test exposes samples to a constant salt-water fog and is a de facto test of solubility for corrosion inhibitors. […] This accelerated corrosion test exposes samples to a cycle of fog of dilute salt and ammonium sulfate at room temperature followed by forced-air drying at an elevated temperature.
Chromate pigments were precipitated from aqueous synthesis solutions and incorporated into PVB wash primer formulations so that each primer sample had the same molar quantity of hexavalent chromium. […] After the samples had dried for 24 hours, they were scribed and the edges of each sample taped to eliminate edge effects.
Wash primer coatings containing these pigments were prepared wherein the trivalent cobalt was present in identical molar concentrations from sample to sample. […] Pigments were made with chloride, bromide, sulfate, hexafluorosilicate, phosphate, molybdate, tungstate, and phosphomolybdate anions. Additionally, […] was also used as a pigment for this application.

[4] = 144 hours, inhibitor conc. 1.49 × 10^−3 M (20% of Cr)
[5] = 139 hours, inhibitor conc. 1.49 × 10^−3 M (20% of Cr)
[6] = 139 hours, inhibitor conc. 3.72 × 10^−3 M (50% of Cr)

Compound: strontium 10-molybdocobaltate
- 2024-T3 B-117 Proc. A [1, 4]: 6 and 7
- 7075-T6 B-117 Proc. A [1, 4]: 7 and 6
- 2024-T3 B-117 Proc. B [1, 4]: 5
- 7075-T6 B-117 Proc. B [1, 4]: 6 and 5
- 2024-T3 G-85 Proc. A [2, 4]: 7
- 7075-T6 G-85 Proc. A [2, 4]: 7
- 2024-T3 G-85 Proc. B [2, 4]: 6
- 7075-T6 G-85 Proc. B [2, 4]: 6

Compound: calcium 10-molybdocobaltate
- 2024-T3 B-117 Proc. A [1, 4]: 7
- 7075-T6 B-117 Proc. A [1, 4]: 7 and 6
- 2024-T3 B-117 Proc. B [1, 4]: 6
- 7075-T6 B-117 Proc. B [1, 4]: 6
- 2024-T3 G-85 Proc. A [2, 4]: 9
- 7075-T6 G-85 Proc. A [2, 4]: 8 and 9
- 2024-T3 G-85 Proc. B [2, 4]: 8
- 7075-T6 G-85 Proc. B [2, 4]: 7 and 8

Compound: strontium 10-vanadatocobaltate
- 2024-T3 B-117 Proc. A [1, 5]: 7
- 7075-T6 B-117 Proc. A [1, 5]: 6
- 2024-T3 B-117 Proc. B [1, 5]: 6
- 7075-T6 B-117 Proc. B [1, 5]: 5
- 2024-T3 G-85 Proc. A [2, 5]: 7
- 7075-T6 G-85 Proc. A [2, 5]: 6
- 2024-T3 G-85 Proc. B [2, 5]: 6
- 7075-T6 G-85 Proc. B [2, 5]: 5

Compound: zinc 10-molybdocobaltate
- 2024-T3 B-117 Proc. A [1, 4]: 7
- 7075-T6 B-117 Proc. A [1, 4]: 7
- 2024-T3 B-117 Proc. B [1, 4]: 7
- 7075-T6 B-117 Proc. B [1, 4]: 7 and 5
- 2024-T3 G-85 Proc. A [2, 4]: 6 and 7
- 7075-T6 G-85 Proc. A [2, 4]: 7
- 2024-T3 G-85 Proc. B [2, 4]: 7 and 6
- 7075-T6 G-85 Proc. B [2, 4]: 6

Compound: magnesium periodatocobaltate
- 2024-T3 B-117 Proc. A [1, 6]: 7
- 7075-T6 B-117 Proc. A [1, 6]: 7
- 2024-T3 B-117 Proc. B [1, 6]: 6
- 7075-T6 B-117 Proc. B [1, 6]: 6
- 2024-T3 G-85 Proc. A [2, 6]: 7 and 8
- 7075-T6 G-85 Proc. A [2, 6]: 7
- 2024-T3 G-85 Proc. B [2, 6]: 7 and 8
- 7075-T6 G-85 Proc. B [2, 6]: 7

Compound: zinc 10-vanadatocobaltate
- 2024-T3 B-117 Proc. A [1, 5]: 9
- 7075-T6 B-117 Proc. A [1, 5]: 8 and 9
- 2024-T3 B-117 Proc. B [1, 5]: 9 and 8
- 7075-T6 B-117 Proc. B [1, 5]: 8 and 9
- 2024-T3 G-85 Proc. A [2, 5]: 7
- 7075-T6 G-85 Proc. A [2, 5]: 7
- 2024-T3 G-85 Proc. B [2, 5]: 6
- 7075-T6 G-85 Proc. B [2, 5]: 6

Compound: N.N.N.N.N.N.N.N.N.N.N.N.[Co+3].[Co+3].[O]=[W](=[O])([O-])[O-].[O]=[W](=[O])([O-])[O-].[O]=[W](=[O])([O-])[O-] [hexaaminecobalt(III) tungstate]
- corrosion resistance of trivalent cobalt pigments in PVB wash primer [3]: a small amount of corrosion resistance

Compound: calcium 10-vanadatocobaltate
- 2024-T3 B-117 Proc. A [1, 5]: 8
- 7075-T6 B-117 Proc. A [1, 5]: 7
- 2024-T3 B-117 Proc. B [1, 5]: 7
- 7075-T6 B-117 Proc. B [1, 5]: 6
- 2024-T3 G-85 Proc. A [2, 5]: 7 and 8
- 7075-T6 G-85 Proc. A [2, 5]: 7
- 2024-T3 G-85 Proc. B [2, 5]: 6
- 7075-T6 G-85 Proc. B [2, 5]: 6

Compound: sodium 10-vanadatocobaltate
- 2024-T3 B-117 Proc. A [1, 5]: 9
- 7075-T6 B-117 Proc. A [1, 5]: 6
- 2024-T3 B-117 Proc. B [1, 5]: 8
- 7075-T6 B-117 Proc. B [1, 5]: 7
- 2024-T3 G-85 Proc. A [2, 5]: 8
- 7075-T6 G-85 Proc. A [2, 5]: 7
- 2024-T3 G-85 Proc. B [2, 5]: 7
- 7075-T6 G-85 Proc. B [2, 5]: 6

Compound: barium 10-molybdocobaltate
- 2024-T3 B-117 Proc. A [1, 4]: 7
- 7075-T6 B-117 Proc. A [1, 4]: 6
- 2024-T3 B-117 Proc. B [1, 4]: 6
- 7075-T6 B-117 Proc. B [1, 4]: 5
- 2024-T3 G-85 Proc. A [2, 4]: 7
- 7075-T6 G-85 Proc. A [2, 4]: 7
- 2024-T3 G-85 Proc. B [2, 4]: 7
- 7075-T6 G-85 Proc. B [2, 4]: 7
